# Data taken from US20080242700A1, “Methods and Compositions for Selectin Inhibition” (Wyeth, priority 2007, published 2008).
# Target: T1, P-selectin/PSGL-1 interaction (Homo sapiens, UniProt P16109)
# T1 construct: comprised of the lectin and epidermal growth factor-like (EGF) domains expressed in CHO cells; made in house; host or cells: CHO cells (P-LE)
# T1 sequence (P16109 42-198): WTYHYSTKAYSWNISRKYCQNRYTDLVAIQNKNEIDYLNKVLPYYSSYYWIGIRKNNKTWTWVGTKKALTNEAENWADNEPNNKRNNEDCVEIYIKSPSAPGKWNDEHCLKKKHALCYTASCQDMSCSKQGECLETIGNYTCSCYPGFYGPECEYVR
# Test: Biacore P-selectin/PSGL-1 inhibition assay (surface plasmon resonance)
# Format: binding
# Details: 250 uM test compound; 500 nM P.LE; immobilized biotinylated PSGL-1 19ek; 10% DMSO; pH 7.4; 25° C.
# Experimental: Surface plasmon resonance assays were performed on a Biacore 3000 instrument (Biacore Inc. Piscataway, N.J.) at 25° C. at a flow rate of 30 μL/minute and each assay consisted of a 60-second equilibration, a 60-μL sample injection (kinject), and a 300-second dissociation.
# A purified, monomeric, truncated form of human PSGL-1, “19ek”, that contained all the necessary P-selectin binding determinants (see Goetz, et al., J Cell Biol., 1997, 137: 509-519; and Sako, et al., Cell, 1995, 83: 323-331) was biotinylated via amine chemistry (Sulfo-NHS-LC-Biotin, Peirce) at a unique C-terminal lysine residue (see Somers, et al., Cell, 2000, 103: 467-479) and immobilized on a Biacore SA sensor chip (Biacore Inc.), using an HBS-EP buffer (Biacore Inc.), and the target 600-700 RU. The coated chip was re-equilibrated with an HBS-P buffer (Biacore Inc.) to which 1 mM CaCl2 and 1 mM MgCl2 (both from Fisher) were added to ensure sufficient calcium for the calcium-dependent interaction between the receptor and the ligand.
# Test compounds were incubated for 1 hour in a 1.1× Biacore assay buffer. Each solution was centrifuged through a 0.2 μm filter, using a 96-well plate format (Millipore). Glycyrrhizin tri-sodium salt (TCl) was prepared as a positive control in parallel with the test compounds, in the same manner described above.
# A soluble recombinant truncated form of human P-selectin, P-LE, comprised of the lectin and epidermal growth factor-like (EGF) domains expressed in CHO cells (see Somers, et al., Cell, 2000, 103: 467-479) was added to each filtered test compound solution. Final concentrations of reagents were 500 nM P.LE, 250 or 500 μM test compound (depending on structure) or 1 mM glycyrrhizin, 10% DMSO, and 1× Biacore buffer ([…], 150 mM NaCl, 1 mM CaCl2, and 1 mM MgCl2 (all reagents from Fisher)), with a pH of 7.4. Compounds active at 250 μM were titrated to further define activity. Test samples were supplied to the Biacore instrument in a 96-well plate.
# The Biacore raw data file was exported as a text file to an Excel spreadsheet, where the buffer blanks bracketing the samples were averaged for each Biacore instrument flow cell (Fc), and subtracted from the averaged uninhibited P.LE samples and from all the other samples. The reference signal from Fc1 (uncoated) was then subtracted from its corresponding active (coated) signal for each injection, a process known as double referencing (see Myszka, J Mol. Recognit., 1999, 12(5): 279-284). The percent inhibition of binding was calculated by dividing the reference-subtracted inhibited signal by the reference-subtracted uninhibited signal, subtracting this value from 1, and multiplying the resulting value by 100. The replicate percent inhibition values were averaged and expressed as the mean±standard deviation. The inter-experiment standard deviation of calculated percent inhibitions in the Biacore assay was ±5.
row,inhibition at 250 µM [%],SMILES
1,48,"CC(C)c1cccc2c(C(=O)O)c(O)c(C3Cc4ccccc4C3)nc12 [Compound 4, 3-hydroxy-2-indan-2-yl-8-isopropyl-quinolin-4-carboxylicacid]"
2,45,"O=C(O)c1c(O)c(C2Cc3ccccc32)nc2c(C(F)(F)F)cccc12 (stereo not drawn) [Compound 1, 2-(1,2-dihydrocyclobutabenzen-1-yl)-3-hydroxy-8-(trifluoro-methyl)quinoline-4-carboxylic acid]"
3,11,"Cc1ccc2c(C(=O)O)c(O)c(C3Cc4ccccc4C3)nc2c1C [Compound 3, 3-hydroxy-2-indan-2-yl-7,8-dimethyl-quinolin-4-carboxylicacid]"
4,17,"Cc1ccc2c(C(=O)O)c(O)c(C3Cc4ccccc43)nc2c1C (stereo not drawn) [Compound 2, 2-(1,2-dihydrocyclobutabenzen-1-yl)-3-hydroxy-7,8-dimethyl-quinolin-4-carboxylic acid]"
5,35,"O=C(O)c1c(O)c(C2Cc3ccccc3C2)nc2c(C(F)(F)F)cccc12 [Compound 5, 3-hydroxy-2-indan-2-yl-8-trifluoromethyl-quinoline-4-carboxylic acid]"

# Same assay, conditions: positive control in the Biacore assay
row,IC50 [µM],SMILES
1,1000,"CC1(C)[C@@H](O[C@H]2O[C@H](C(=O)O)[C@@H](O)[C@H](O)[C@H]2O[C@@H]2O[C@H](C(=O)O)[C@@H](O)[C@H](O)[C@H]2O)CC[C@]2(C)[C@H]3C(=O)C=C4[C@@H]5C[C@@](C)(C(=O)O)CC[C@]5(C)CC[C@@]4(C)[C@]3(C)CC[C@@H]12 [Glycyrrhizin, reference compound]"
